This data set can be described thus: Bioavailability of fluorescent-labeled HA PulmoSpheres, plasma peptide by fluorometry. Type of data set: in vivo. The settings on record: mice. The protocol:
A formulation comprising fluoroscein-HA peptide (20% wt/wt) PulmoSpheres (f-HA-Pul) prepared as in Example IV was suspended in perflubron. Metofane anesthetized mice were inoculated intranasally (i.n.) with a […] volume of f-HA-Pul in perflubron, corresponding to […] of peptide dose. Blood samples were collected by ocular bleeding in heparin-treated tubes, the plasma was separated and the concentration of the peptide was measured by fluorometry. As a control, an intravenous i.v.) inoculation of […] of f-HA peptide in […] of sterile saline (n=4 for all groups) was used.

The values below come from US6630169B1, “Particulate delivery systems and methods of use” (priority 2000, dated 2003).

The structures appear in SMILES notation. Residues, ends and D or L forms follow the SMILES beside them. *: point of attachment. 5FAM = O=C1OC2(c3ccc(O)cc3Oc3cc(O)ccc32)c2ccc(C(=O)*)cc21

One may read the Tmax as the time at which the peak concentration occurs. One may read the bioavailability as the share of a dose that reaches the circulation, judged against a reference dose that is usually intravenous.

For the compound `CC[C@H](C)[C@H](NC(=O)[C@H](CCC(=O)O)NC(=O)[C@H](Cc1ccccc1)NC(=O)[C@H](CCCNC(=N)N)NC(=O)[C@H](CCC(=O)O)NC(=O)[C@H](Cc1ccccc1)NC(=O)[C@H](CO)NC(=O)c1ccc2c(c1)C(=O)OC21c2ccc(O)cc2Oc2cc(O)ccc21)C(=O)N[C@@H](Cc1ccccc1)C(=O)N1CCC[C@H]1C(=O)N[C@@H](CCCCN)C(=O)N[C@@H](CCC(=O)O)C(=O)O` [f-HA peptide] (5FAM-SFERFEIFPKE-OH; N-terminus and C-terminus assumed), the “total clearance (elimination via urine)” value is ≤ 6 h. Besides, where the note is “mouse, in vivo, i.n., f-HA-Pul in perflubron”, the Tmax is 20 min. For the same compound, under “mouse, in vivo, i.n., f-HA-Pul in perflubron, vs i.v. f-HA peptide in saline, read-out: absolute bioavailability”, the bioavailability was ~5%.
